Assay results from patent US7148232B2, “Oxazolo, thiazolo and selenazolo [4,5-c]-quinolin-4-amines and analogs thereof” (3M Innovative Properties Company, priority 1998, dated 2006).

Tests used:
interferon (α) = assay: Interferon (α) induction in human cells (in vitro human blood cell system, interferon by bioassay); assay type: cell-based; settings: human PBM's, 48 hours
Procedure: An in vitro human blood cell system was used to assess interferon induction by compounds of the invention. Activity is based on the measurement of interferon secreted into culture media. Interferon is measured by bioassay.
Whole blood is collected by venipuncture into EDTA vacutainer tubes. Peripheral blood mononuclear cells (PBM's) are separated from whole blood by using either LeucoPREP™ Brand Cell Separation Tubes (available from Becton Dickinson) or Ficoll-Paque® solution (available from Pharmacia LKB Biotechnology Inc, Piscataway, N.J.). […] 200 μL portions of PBM suspension are added to 96 well (flat bottom) sterile tissue culture plates (Becton Dickinson Labware, Lincoln Park, N.J.).
The compounds are solubilized in ethanol, dimethyl sulfoxide or tissue culture water then diluted with tissue culture water, 0.01N sodium hydroxide or 0.01N hydrochloric acid (The choice of solvent will depend on the chemical characteristics of the compound being tested.). Ethanol or DMSO concentration should not exceed a final concentration of 1% for addition to the culture wells. Compounds are initially tested in a concentration range of from about 0.1 μg/mL to about 5 μg/mL. Compounds which show induction at a concentration of 0.5 μg/mL are then tested in a wider concentration range.
The solution of test compound is added in a volume (less than or equal to 50 μL) to the wells containing 200 μL of diluted whole blood or of PBM's in media. Solvent and/or media is added to control wells (wells with no test compound) and as needed to adjust the final volume of each well to 250 μL. The plates are covered with plastic lids, vortexed gently and then incubated for 48 hours at 37° C. with a 5% carbon dioxide atmosphere.
Following incubation, the plates are covered with parafilm and then centrifuged at 1000 rpm for 10 to 15 minutes at 4° C. in a Damon IEC Model CRU-5000 centrifuge. Media (about 200 μL) is removed from 4 to 8 wells and pooled into 2 mL sterile freezing vials. Samples are maintained at −70° C. until analysis.
Interferon is determined by bioassay using A549 human lung carcinoma cells challenged with encephalomyocarditis. The details of the bioassay method have been described by G. L. Brennan and L. H. Kronenberg in “Automated Bioassay of Interferons in Micro-test Plates”, Biotechniques, June/Jul. […] The incubated cells are infected with an inoculum of encephalomyocarditis virus. The infected cells are incubated for an additional period at 37° C. before quantifying for viral cytopathic effect. The viral cytopathic effect is quantified by staining followed by spectrophotometric absorbance measurements. Results are expressed as alpha reference units/mL based on the value obtained for NIH HU IF-L standard.
Compounds of the invention were tested for their ability to induce interferon in human cells using the test method described above.

| melting point [°C] | SMILES | Interferon (α) Induction in Human Cells (interferon (α); Dose Concentration 0.01 μg/mL) | Interferon (α) Induction in Human Cells (interferon (α); Dose Concentration 0.05 μg/mL) | Interferon (α) Induction in Human Cells (interferon (α); Dose Concentration 0.10 μg/mL) | Interferon (α) Induction in Human Cells (interferon (α); Dose Concentration 0.50 μg/mL) | Interferon (α) Induction in Human Cells (interferon (α); Dose Concentration 1.0 μg/mL) | Interferon (α) Induction in Human Cells (interferon (α); Dose Concentration 5.0 μg/mL) | Interferon (α) Induction in Human Cells (interferon (α); Dose Concentration 10.0 μg/mL) | Interferon (α) Induction in Human Cells (interferon (α); Dose Concentration 25.0 μg/mL) | Interferon (α) Induction in Human Cells (interferon (α); Dose Concentration 50.0 μg/mL) |
| --- | --- | --- | --- | --- | --- | --- | --- | --- | --- | --- |
| 184 to 187 | CCCc1nc2c(N)nc3cc(F)ccc3c2o1 [Example 48, 7-Fluoro-2-propyloxazolo[4,5-c]quinolin-4-amine] | − | − | − | + | + | + |  |  |  |
| 192.5 to 193.5 | CCCc1nc2c(N)nc3cc(F)ccc3c2s1 [Example 49, 7-Fluoro-2-propylthiazolo[4,5-c]quinolin-4-amine] | − | − | − | + | + | + |  |  |  |
| 215 to 216 | CCCc1nc2c(N)nc3cc(C(F)(F)F)ccc3c2s1 [Example 50, 2-Propyl-7-(trifluoromethyl)thiazolo[4,5-c]quinolin-4-amine] |  |  | − | + | + | + | + | + | + |
| 259 to 261 | Nc1nc2ccccc2c2sc(N3CCCC3)nc12 [Example 54, 2-(1-Pyrrolidino)thiazolo[4,5-c]quinolin-4-amine] | − | − | − | − | − | − | − | + | + |
